Marks after values point to notes of the source that are not given here.
Columns and labels:
[1] = molecular target: T1, human vasopressin V1a receptor (Homo sapiens, UniProt P37288); experiment: Functional assay on human vasopressin V1a receptor expressing cell line (intracellular Ca2+ fluorescence); assay type: cell-based; conditions: 1321N1 cells, (Arg8)-vasopressin at EC80; read-out: IC50 (nM) on hV1a cell line
[2] = molecular target: T1, human vasopressin V1a receptor; experiment: Human vasopressin V1a receptor binding assay; conditions: 1321N1 cell membranes, [3H]vasopressin; read-out: Ki (nM) on hV1a cell line
Method in brief: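 Ki values come from IC50 via Cheng-Prusoff (KD from prior Scatchard), averaged over at least two independent runs. Human V1a membranes were incubated with radioligand 60 minutes at 27° C., bound ligand collected by filtration; (Arg^8)-vasopressin at 1.2×10^−6 M defined non-specific binding.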

[3] = molecular target: human vasopressin V2 receptor (Homo sapiens, UniProt P30518); experiment: Human vasopressin V2 receptor binding assay on 1321N1 cell line; conditions: for Ki: 1321N1 cell line, read-out: Ki on hV2 1321N1 cell line
Chain of human vasopressin V2 receptor (P30518 whole entry): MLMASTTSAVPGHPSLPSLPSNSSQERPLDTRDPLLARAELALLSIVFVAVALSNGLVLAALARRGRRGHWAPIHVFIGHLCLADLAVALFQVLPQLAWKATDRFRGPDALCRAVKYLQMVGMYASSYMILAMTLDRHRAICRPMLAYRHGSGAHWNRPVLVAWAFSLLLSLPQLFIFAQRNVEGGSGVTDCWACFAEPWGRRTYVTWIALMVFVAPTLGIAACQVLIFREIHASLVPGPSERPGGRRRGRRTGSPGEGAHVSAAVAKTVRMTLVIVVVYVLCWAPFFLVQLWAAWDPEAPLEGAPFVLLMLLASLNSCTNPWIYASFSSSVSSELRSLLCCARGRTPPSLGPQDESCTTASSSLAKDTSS
Method: Human Vasopressin V2 Receptor Binding Assay Cells and Radioligand
(§1) To determine the final affinity value, the results of at least two independent experiments were taken into account.
(§2) Non-specific binding values were determined in the presence of an unlabeled 1.2×10^−6 M (Arg^8)-vasopressin. Samples were incubated in a total volume of 0.55 ml for 90 minutes at 27° C. Membrane-bound and free ligands were separated by filtration through a 0.5% polyethyleneimine-impregnated UniFilter® GF/B™. After drying the filter plates, 40 μl Microscint-20 (Packard) scintillation cocktail was added to the samples. Finally, radioactivity was measured using MicroBeta^2 Microplate Counter (Perkin Elmer).
(§3) The radioligand displacement ability of a substance is determined in at least two independent experiments. Specific radioligand binding can be defined as the difference between total and non-specific binding in the presence of a saturation amount of the unlabeled ligand or different concentrations of the substance to be tested. The results are given as a percentage of inhibition of the specific binding achieved in the presence of the substance to be tested.
During fitting, the asymptotes are not fixed. The Ki values (inhibition constant) are given with Cheng-Prusoff equation Ki=IC50/[1+(L/KD)] wherein [L] is the radioligand concentration used in the experiment and [KD] is the affinity of the radioactively labelled ligand for the given receptor. The KD is determined beforehand using the Scatchard curve.

[4] = molecular target: mouse vasopressin V1a receptor (Mus musculus, UniProt Q62463); experiment: Mouse vasopressin V1a receptor binding assay; conditions: 1321N1 cell membranes; read-out: Ki (nM) on mV1a cell line
Chain of mouse vasopressin V1a receptor (Q62463 whole entry): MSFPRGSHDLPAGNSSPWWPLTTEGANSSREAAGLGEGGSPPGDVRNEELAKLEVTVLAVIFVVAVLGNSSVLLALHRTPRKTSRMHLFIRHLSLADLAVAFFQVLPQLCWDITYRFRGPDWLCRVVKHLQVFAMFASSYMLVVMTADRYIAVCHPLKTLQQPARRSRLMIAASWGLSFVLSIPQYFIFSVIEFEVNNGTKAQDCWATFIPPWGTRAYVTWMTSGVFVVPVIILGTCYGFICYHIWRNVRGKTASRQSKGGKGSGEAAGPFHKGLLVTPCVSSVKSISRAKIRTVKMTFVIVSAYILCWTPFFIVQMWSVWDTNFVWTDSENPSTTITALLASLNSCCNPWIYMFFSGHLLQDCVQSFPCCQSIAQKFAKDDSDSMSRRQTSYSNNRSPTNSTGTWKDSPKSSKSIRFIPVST
From the text: Mouse Vasopressin V1a Receptor Binding Assay Cells and Radioligand
The immortalized 1321N1 cell line (B9/1321N1 clone) constitutively and stably expressing Mouse vasopressin V1a receptor vasopressin (8-L-Arginine), [Phenylalanyl-3,4,5-^3H(N)] labelled compound (Perkin Elmer Life and Analytical Sciences) as radioligand were used to determine the affinity of the prepared compounds.
Membrane-preparation: Membrane preparation of immortalized 1321N1 cells expressing the propagated mouse Vasopressin V1a receptor was made according to Jarvis's method (Jarvis et al., J Pharmacol Exp Ther […], 310:407-16). Cells were suspended in preparative buffer (50 mM Tris, 1 mM EDTA, 0.1 mM PMSF) and homogenized with glass homogenizing potter. To separate the raw membrane fraction two consecutive centrifugation procedures (40,000 g for 25 minutes at 4° C.) were executed, then the membrane was taken into the preparatory buffer during a final washing step, it was divided into aliquots which were stored at −80° C. until the time of measurement.
The protein content of the prepared membrane was determined according to Lowry's method using standard dilution line of bovine serum albumin (BSA) (Lowry et al., J Biol Chem 1951, 193:265-75).
as §1
as §2, with “0.33” for “0.55”, “60” for “90”, “GF/B™” for “GF/B™.”
as §3, with “clamping” for “displacement”
The IC50 data (i.e. the concentration of the unknown substance which displaces 50% of specific bound radioligand) is calculated from the concentration-displacement curve using the sigmoid fitting mathematical method y=(A1−A2)/(1+(x/x0)p)+A2 with Origin 7.5. software (OriginLab Corporation, Northampton, USA). During fitting, the asymptotes are not fixed. The Ki values (inhibition constant) are given with Cheng-Prusoff equation Ki=IC50/[1+(L/KD)] wherein [L] is the radioligand concentration used in the experiment and [KD] is the affinity of the radioactively labelled ligand for the given receptor. The KD is determined beforehand using the Scatchard curve.

mouse V1a receptor = mouse V1a receptor (Mus musculus, UniProt Q62463); experiment: Functional V1a in vivo test: inhibition of oxytocin-induced scratching behaviour; conditions: mice
Chain of mouse V1a receptor (Q62463 whole entry): as above
Method: Functional V1a In Vivo Test
Male mice (NMRI, ToxiCoop) weighing 18-40 g were used. Animals were kept at least 5 days after delivery, during housing and measurements they were fed and drink ad libitum. The experiments were permitted by the Local Animal Protection Committee and carried out in accordance with the European Animal Protection Directives (EU Directive 2010/63/EU).
Animal behaviour was measured by an automated behavioral analysis system (LABORAS™). The sensors located below platforms detect the mechanical vibration generated by the movement of animal, and transform into an electrical signal (Quinn et al., J Neurosci Methods 2003, 130:83-92). After analyzing signals, the system analyzes the time spent with the following behavioral parameters: locomotion, immobility, climbing, grooming. The grooming algorithm by definition is able to measure the scratching behavioral response. During the experiment, mice were pretreated with the test substance or vehicle, and after the pretreatment period scratching-inducing compound (s.c. 0.3 mg/kg oxytocin) was administered, and then the animals were individually placed into measuring cages. […] To reduce the exploratory activity, the animals were measured after a 1-hour habituation to the cage. The behavioural parameters were compared to the parallel measured parameters of the control animals.
The behavioural inhibitory effect of the substances was calculated with average values of parallel measured vehicle treated groups and presented as the percentage of inhibition: 0% was expressed as average value of scratching behaviour of vehicle pretreated animals (and phys. saline s.c. pretreated with vehicle), while 100% was expressed as average value of scratching of vehicle pretreated animals that received oxytocin subcutaneously. For statistical analysis one-way analysis of variance (ANOVA) with Tukey post hoc test were used.

[5] = tested on: Prenatally valproate-treated rats; experiment: Prenatal valproate model of ASD, social approach avoidance paradigm; assay type: in vivo, rat; conditions: VPA rats
Method: (§4) The Prenatal Valproate Model of Autism Spectrum Disorder (ASD) in Rats
(§5) The prenatal valproate model has excellent construct and face validity, thus it is a widely accepted animal model of ASD (Christensen et al, JAMA 2013, 309:1696-1703; Roullet et al, Neurotoxicol Teratol. 2013, 36:45-56). In this model, time-mated female Wistar rats (Harlan, UK) were treated with single-dose of valproic acid (VPA, i.p. 600 mg/kg) on 12.5 days of pregnancy. After birth and separation, the examined male offsprings were kept under standard laboratory conditions until completion of the studies. Four animals were kept together in standard cages at 22-24° C. external temperature and in 12-12 hour light-dark cycle (07.30 a.m.-07.30 p.m.). Food and water were available ad libitum. After once daily treatment with the test substance for 7 days and pretreatment on the day of measurement, the behaviour of the rats was assessed in the social preference test on the 59th or 60th postnatal day. The social preference test is a largely accepted test method for determining the autistic behaviour of rodents (Nadler et al, Genes Brain Behav 2004, 3:303-314; Bambini-Junior et al, Brain Res 2011, 1408:8-16). The test consists of two paradigms, the first is the social approach avoidance test. In this paradigm the social behaviour of examined animals can be determined with a special three-chamber apparatus. In the apparatus, the contact behaviour of the conspecific and empty separated area surrounded with a perforated wall can be examined and compared. […] One day later, on the 60th postnatal day, rats were tested in the social memory and recognition paradigm. In this, the contact behaviour with a new, previously unknown conspecific can be measured compared to a familiar conspecific.

[6] = tested on: Prenatally valproate-treated rats; experiment: Prenatal valproate model of ASD, social memory recognition paradigm; assay type: in vivo, rat; conditions: VPA rats
Method: as §4, §5
Unexpectedly, the treatment reversed the value of VPA/VEH to the value of VEH/VEH treated animals.

[7] = after i.p. treatment (table title: 10 mg/kg)
[8] = 5 mg/kg i.p., VEH/VEH = 100%, VPA/VEH = 0%

T1 sequence (P37288 whole entry): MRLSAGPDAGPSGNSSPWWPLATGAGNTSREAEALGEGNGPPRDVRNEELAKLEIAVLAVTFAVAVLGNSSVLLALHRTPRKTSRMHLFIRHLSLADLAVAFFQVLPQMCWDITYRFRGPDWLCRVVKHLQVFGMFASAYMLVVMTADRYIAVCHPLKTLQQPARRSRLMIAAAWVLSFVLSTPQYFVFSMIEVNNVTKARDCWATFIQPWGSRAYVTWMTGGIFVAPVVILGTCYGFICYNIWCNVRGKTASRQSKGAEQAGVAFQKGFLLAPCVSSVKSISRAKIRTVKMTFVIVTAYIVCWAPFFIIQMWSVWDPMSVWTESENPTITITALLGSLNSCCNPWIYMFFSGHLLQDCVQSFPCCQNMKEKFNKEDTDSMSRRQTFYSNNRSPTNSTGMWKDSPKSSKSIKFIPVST

Compound | IC50 [1] [nM] | Ki [2] [nM] | Ki [3] [nM] | Ki [4] [nM] | further results
CN(C1Cc2cc(Cl)ccc2-n2c(nnc2[C@H]2CC[C@H](Oc3ccccn3)CC2)C1)S(C)(=O)=O (stereo partly drawn) [Example 19, N-{8-chloro-1-[trans-4-pyridin-2-loxcyclohexyl]-5,6-dihydro-4H-[1,2,4]triazolo[4,3-a][1]benzazepin-5-yl}-N-methylmethanesulfonamide] | 1.8 | 0.4 | 610 |  | 
CC(C)NC1Cc2cc(Cl)ccc2-n2c(nnc2[C@H]2CC[C@H](Oc3ccccn3)CC2)C1 (stereo partly drawn) [Example 24, 8-chloro-N-(propan-2-yl)-1-[trans-4-(pyridin-2-yloxy)cyclohexyl]-5,6-dihydro-4H-[1,2,4]triazolo[4,3-a][1]benzazepine-5-amine] | 7 | 1 |  | 25 | inhibition (%) of oxytocin-induced scratching behaviour response (mouse V1a receptor; [7]): 94* %
CC(C)N[C@H]1Cc2cc(Cl)ccc2-n2c(nnc2[C@H]2CC[C@H](Oc3ccccn3)CC2)C1 [Example 25] | 23 | 2.3 |  | 353 | inhibition (%) of oxytocin-induced scratching behaviour response (mouse V1a receptor; [7]): 42* %
O=C(CCCCCCC(=O)Nc1ccccc1)NO [SAHA, suberoil anilide, reference compound] |  |  |  |  | social approach avoidance active contact time ([5]; 5 mg/kg i.p., mean ± S.E.M.): 156.0 ± 6.7 s; social approach avoidance % effect [5, 8]: 115%; time spent with social seeking response / social behaviour ([5]; result in words): statistically significant increase; social memory recognition active novelty contact time ([6]; 5 mg/kg i.p., mean ± S.E.M.): 155.5 ± 5.8 s; social memory recognition % effect [6, 8]: 137%; active time spent with seeking response towards new animal ([6]; result in words): statistically significant increase

Further lines, with some results ahead:

IC50 [1] [nM] | Ki [2] [nM] | Ki [3] [nM] | Ki [4] [nM] | Compound | further results
1.6 | 0.5 | 255 |  | CS(=O)(=O)NC1Cc2cc(Cl)ccc2-n2c(nnc2[C@H]2CC[C@H](Oc3ccccn3)CC2)C1 (stereo partly drawn) [Example 18, N-{8-chloro-1-[trans-4-(pyridin-2-yloxy)cyclohexyl]-5,6-dihydro-4H-[1,2,4]triazolo[4,3-a][1]benzazepin-5-yl}methanesulfonamide] | 
1 | 0.7 | 365 |  | CN(C)S(=O)(=O)NC1Cc2cc(Cl)ccc2-n2c(nnc2[C@H]2CC[C@H](Oc3ccccn3)CC2)C1 (stereo partly drawn) [Example 20, N′-{8-chloro-1-[trans-4-(pyridin-2-yloxy)cyclohexyl]-5,6-dihydro-4H-[1,2,4]triazolo[4,3-a][1]benzazepin-5-yl}-N,N-dimethylsulfamide] | 
4 | 0.7 |  |  | CNC1Cc2cc(Cl)ccc2-n2c(nnc2[C@H]2CC[C@H](Oc3ccccn3)CC2)C1 (stereo partly drawn) [Example 21, 8-chloro-N-methyl-1-[trans-4-(pyridin-2-yloxy)cyclohexyl]-5,6-dihydro-4H-[1,2,4]triazolo[4,3a][1]benzazepine-5-amine] | inhibition at 1 µM ([3]; read-out: inhibition % at 1 μM on hV2 1321N1 cell line): 35%
2.3 | 0.8 | 366 |  | FC(F)(F)c1ccc2c(c1)CC1(Cc3nnc([C@H]4CC[C@H](Oc5ccccn5)CC4)n3-2)OCCO1 [Example 47] | 
 |  |  | 1.1 | Clc1ccc2c(c1)CC1(Cc3nnc([C@H]4CC[C@H](Oc5ccccn5)CC4)n3-2)OCCO1 [Example 53, 8′-chloro-1′-[trans-4-(pyridin-2-yloxy)cyclohexyl]-4′H,6′H-spiro[1,3-dioxolane-2,5′-[1,2,4]triazolo[4,3-a][1]benzazepine]] | inhibition (%) of oxytocin-induced scratching behaviour response (mouse V1a receptor; 10 mg/kg p.o. pretreatment): 118%

Source: patent US11298363B2, “Triazolobenzazepines as vasopressin V1a receptor antagonists” (RICHTER GEDEON NYRT., priority 2017, dated 2022)
